Test results from article PMC6421522, “Designing Dual Inhibitors of Anaplastic Lymphoma Kinase (ALK) and Bromodomain-4 (BRD4) by Tuning Kinase Selectivity” (Journal of Medicinal Chemistry, 2019).

Tests used:
PLK-1 = target: T1, PLK-1 (Homo sapiens, UniProt P53350); experiment: PLK-1 Z-LYTE activity assay (SelectScreen); assay type: biochemical; settings: for fold decrease of PLK-1 activity/potency: relative to starting compound BI-2536
T1 construct: purchased Thermo Fisher Scientific (SelectScreen service)
T1 sequence (P53350 whole entry): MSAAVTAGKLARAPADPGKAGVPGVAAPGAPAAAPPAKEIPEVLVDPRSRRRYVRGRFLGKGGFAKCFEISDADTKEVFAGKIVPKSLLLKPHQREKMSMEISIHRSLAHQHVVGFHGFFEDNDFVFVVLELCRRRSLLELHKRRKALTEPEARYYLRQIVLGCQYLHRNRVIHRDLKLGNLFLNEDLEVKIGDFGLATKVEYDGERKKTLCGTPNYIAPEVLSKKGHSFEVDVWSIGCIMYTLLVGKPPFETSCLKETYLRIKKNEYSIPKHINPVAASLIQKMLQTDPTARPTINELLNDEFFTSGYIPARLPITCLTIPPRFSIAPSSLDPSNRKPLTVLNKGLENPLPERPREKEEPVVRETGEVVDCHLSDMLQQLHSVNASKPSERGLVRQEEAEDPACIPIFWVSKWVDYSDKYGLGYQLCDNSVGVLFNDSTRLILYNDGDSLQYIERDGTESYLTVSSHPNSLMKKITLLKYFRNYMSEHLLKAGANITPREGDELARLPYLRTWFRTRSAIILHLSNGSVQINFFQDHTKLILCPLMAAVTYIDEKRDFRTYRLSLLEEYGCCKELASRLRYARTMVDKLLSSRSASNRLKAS

ALK^F1174L = target: T2, ALK^F1174L (Homo sapiens, UniProt Q9UM73, F1174L); experiment: LanthaScreen Eu kinase binding assay
T2 construct: purchased Carna Biosciences
T2 sequence (Q9UM73 19-1620 F1174L): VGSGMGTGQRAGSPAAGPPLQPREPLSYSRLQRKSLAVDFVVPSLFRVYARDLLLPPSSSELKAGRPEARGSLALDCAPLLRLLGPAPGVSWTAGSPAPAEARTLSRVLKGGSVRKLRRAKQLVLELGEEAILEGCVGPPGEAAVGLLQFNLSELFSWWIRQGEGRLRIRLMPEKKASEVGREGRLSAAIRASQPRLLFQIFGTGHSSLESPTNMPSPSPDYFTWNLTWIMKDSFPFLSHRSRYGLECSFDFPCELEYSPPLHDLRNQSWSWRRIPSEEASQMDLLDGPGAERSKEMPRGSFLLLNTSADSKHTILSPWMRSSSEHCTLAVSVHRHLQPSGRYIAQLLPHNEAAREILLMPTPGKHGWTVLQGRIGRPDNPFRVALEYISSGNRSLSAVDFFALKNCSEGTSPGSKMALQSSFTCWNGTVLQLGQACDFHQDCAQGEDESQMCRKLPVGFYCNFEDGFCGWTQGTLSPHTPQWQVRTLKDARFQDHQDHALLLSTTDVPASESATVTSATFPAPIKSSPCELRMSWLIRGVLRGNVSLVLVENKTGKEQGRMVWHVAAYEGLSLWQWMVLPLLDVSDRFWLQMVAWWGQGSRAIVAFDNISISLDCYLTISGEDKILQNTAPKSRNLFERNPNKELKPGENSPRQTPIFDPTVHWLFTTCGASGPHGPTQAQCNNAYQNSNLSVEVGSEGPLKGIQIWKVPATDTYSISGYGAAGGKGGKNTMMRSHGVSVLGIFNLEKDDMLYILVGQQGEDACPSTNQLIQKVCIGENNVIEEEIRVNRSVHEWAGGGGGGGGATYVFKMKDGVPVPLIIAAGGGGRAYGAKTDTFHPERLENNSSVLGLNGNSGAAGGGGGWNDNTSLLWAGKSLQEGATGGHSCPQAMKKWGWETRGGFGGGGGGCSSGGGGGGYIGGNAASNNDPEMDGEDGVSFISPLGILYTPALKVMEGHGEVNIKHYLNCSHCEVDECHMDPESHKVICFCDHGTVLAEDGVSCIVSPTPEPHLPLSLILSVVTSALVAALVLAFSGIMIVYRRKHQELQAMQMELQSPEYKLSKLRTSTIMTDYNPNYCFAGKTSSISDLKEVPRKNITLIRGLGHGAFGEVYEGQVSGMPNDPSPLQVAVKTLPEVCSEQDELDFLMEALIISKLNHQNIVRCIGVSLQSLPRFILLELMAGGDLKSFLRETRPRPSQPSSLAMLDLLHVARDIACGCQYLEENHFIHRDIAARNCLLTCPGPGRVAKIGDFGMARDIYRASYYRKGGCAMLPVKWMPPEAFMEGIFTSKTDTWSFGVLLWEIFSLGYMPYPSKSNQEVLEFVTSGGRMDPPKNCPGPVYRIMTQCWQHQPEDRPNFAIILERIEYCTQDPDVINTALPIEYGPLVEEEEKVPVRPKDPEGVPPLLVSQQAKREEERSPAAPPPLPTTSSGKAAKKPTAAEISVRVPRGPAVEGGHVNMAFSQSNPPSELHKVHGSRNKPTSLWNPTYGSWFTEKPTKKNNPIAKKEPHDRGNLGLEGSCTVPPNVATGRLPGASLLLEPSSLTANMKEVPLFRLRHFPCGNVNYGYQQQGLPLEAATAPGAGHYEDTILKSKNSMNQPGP

ALK WT = ALK WT (Homo sapiens, UniProt Q9UM73); experiment: Biochemical ALK WT IC50; assay type: binding; settings: geometric mean
Sequence of ALK WT (Q9UM73 19-1620): as the sequence (Q9UM73 19-1620 F1174L) above, with L1156F counted along it

HeLa cells = experiment: Mitotic arrest and mitotic markers in HeLa cells (Western blot); assay type: cell-based; settings: HeLa cells, Western blot
Protocol: Protein extracts of cells were prepared by lysis in radioimmunoprecipitation assay buffer (Sigma) supplemented with protease inhibitors (complete protease inhibitor cocktail, Roche). Protein extracts (25 μg) were separated by sodium dodecyl sulfate-polyacrylamide gel electrophoresis and transferred onto poly(vinylidene difluoride) membranes using the Trans-Blot Turbo transfer system (BioRad). After blocking with 5% bovine serum albumin in PBS with 0.1% Tween-20 for 30 min, the membrane was incubated with primary antibodies for 1 h at room temperature. Horseradish peroxidase-linked secondary antibodies were incubated 30 min at room temperature followed by enhanced chemiluminescence (ECL) detection (ECL Western blot substrate, Pierce).
Primary antibodies were obtained from the following sources: PLK-1 (05-844) and phosphohistone H3 (Ser10) (05806) from Millipore; pPlk1-T210 (5472) from Cell Signaling; pPlk1-S137 (21738) from Abcam; and cyclin B1 (GNS1) and β-actin (A2228) from Sigma-Aldrich served as loading control.

SMILES | fold decrease of PLK-1 activity/potency (PLK-1) | also measured
CC[C@@H]1C(=O)N(C)c2cnc(Nc3ccc(C4CCN(C)CC4)cc3OC)nc2N1C1CCCC1 [16a, (R)-8-Cyclopentyl-7-ethyl-2-((2-methoxy-4-(1-methylpiperidin-4-yl)phenyl)amino)-5-methyl-7,8-dihydropteridin-6(5H)-one] | four-fold | –
CCOc1cc(C(=O)NC2CCN(C)CC2)ccc1Nc1ncc2c(n1)N(C1CCCC1)CC(=O)N2C [16e, 4-((8-Cyclopentyl-5-methyl-6-oxo-5,6,7,8-tetrahydropteridin-2-yl)amino)-3-ethoxy-N-(1-methylpiperidin-4-yl)benzamide] | – | fold reduction of ALK^F1174L potency (ALK^F1174L; on removal of the (R)-Et group): 3 fold
CCOc1cc(C(=O)NC2CCN(C)CC2)ccc1Nc1ncc2c(n1)N(Cc1cccc(Br)c1)[C@H](CC)C(=O)N2C [16f, (R)-4-((8-(3-Bromobenzyl)-7-ethyl-5-methyl-6-oxo-5,6,7,8-tetrahydropteridin-2-yl)amino)-3-ethoxy-N-(1-methylpiperidin-4-yl)benzamide] | 30–40 fold | –
CCOc1cc(C2CCN(C)CC2)ccc1Nc1ncc2c(n1)N(Cc1sccc1C)[C@H](CC)C(=O)N2C [16j, (R)-2-((2-Ethoxy-4-(1-methylpiperidin-4-yl)phenyl)amino)-7-ethyl-5-methyl-8-((3-methylthiophen-2-yl)methyl)-7,8-dihydropteridin-6(5H)-one] | – | IC50 (ALK WT): 89 ± 4 nM
CC[C@@H]1C(=O)N(C)c2cnc(Nc3ccc(C(=O)NC4CCN(C)CC4)cc3OC)nc2N1C1CCCC1 [BI-2536, reference compound] | – | concentration inducing mitotic arrest and increased PLK-1, cyclin B1, phosphohistone H3 (HeLa cells): ≤ 50 nM

The next lines start with results.

fold decrease of PLK-1 activity/potency (PLK-1) | SMILES | also measured
30–40 fold | CCOc1cc(C(=O)NC2CCN(C)CC2)ccc1Nc1ncc2c(n1)N(Cc1ccccc1)[C@H](CC)C(=O)N2C [16g, (R)-4-((8-Benzyl-7-ethyl-5-methyl-6-oxo-5,6,7,8-tetrahydropteridin-2-yl)amino)-3-ethoxy-N-(1-methylpiperidin-4-yl)benzamide] | –
100–200 fold | CCOc1cc(C2CCN(C)CC2)ccc1Nc1ncc2c(n1)N(Cc1cccc(Br)c1)[C@H](CC)C(=O)N2C [16h, (R)-8-(3-Bromobenzyl)-2-((2-ethoxy-4-(1-methylpiperidin-4-yl)phenyl)amino)-7-ethyl-5-methyl-7,8-dihydropteridin-6(5H)-one] | –
100–200 fold | CCOc1cc(C2CCN(C)CC2)ccc1Nc1ncc2c(n1)N(Cc1ccccc1)[C@H](CC)C(=O)N2C [16i, (R)-8-Benzyl-2-((2-ethoxy-4-(1-methylpiperidin-4-yl)phenyl)amino)-7-ethyl-5-methyl-7,8-dihydropteridin-6(5H)-one] | IC50 (ALK WT): 120 ± 11 nM; fold increase in ALK^F1174L potency (ALK^F1174L): 2 fold
> 700 fold | CCOc1cc(C2CCN(C)CC2)ccc1Nc1ncc2c(n1)N(Cc1cccc(C#N)c1)[C@H](CC)C(=O)N2C [23b, (R)-3-((2-((2-Ethoxy-4-(1-methylpiperidin-4-yl)phenyl)amino)-7-ethyl-5-methyl-6-oxo-6,7-dihydropteridin-8(5H)-yl)methyl)benzonitrile] | ALK selectivity over PLK-1 (PLK-1; biochemical IC50s ALK^F1174L vs PLK-1): 5 fold
